Structures can show the parent of a compound that is named as a salt.

For the compound `O=C(Nc1ccc(C(F)(F)F)cc1)N[C@H](Cc1ccc(C(F)(F)F)cc1)[C@@H](O)c1ccc(F)cc1` (racemic) [Example 119, N-((1RS,2SR)-2-(4-fluorophenyl)-2-hydroxy-1-((4-(trifluoromethyl)phenyl)methyl)ethyl)-N′-(4-(trifluoromethyl)phenyl)urea], the melting point (as a rule, the temperature of the solid-liquid transition) is 160 to 161 °C.
Consider `CC(C)(C)OC(=O)N[C@H](Cc1cccc(OC(F)(F)C(F)F)c1)[C@@H](O)c1ccc(C=O)cc1` (racemic) [Example 325, tert-butyl N-[(1RS,2SR)-2-(4-formylphenyl)-2-hydroxy-1-[3-(1,1,2,2-tetrafluoroethoxy)benzyl]ethyl]carbamate], for which the melting point lay within 140 to 142 °C.
The compound `CC(C)(C)OC(=O)N[C@H](Cc1cccc(OC(F)(F)C(F)F)c1)[C@@H](O)c1ccc(Oc2cccnc2)cc1` (racemic) [Example 260, tert-butyl (1RS,2SR)-2-hydroxy-2-[4-(pyridin-3-yloxy)phenyl]-1-[3-(1,1,2,2-tetrafluoroethoxy)benzyl]ethylcarbamate] showed a melting point of 123 to 124 °C.
`CC(C)(C)C(F)(F)c1ccc(C[C@@H](NC(=O)c2cccc3c(Cl)cccc23)[C@@H](O)c2cccc(Cl)c2)cc1` (racemic) [Example 381, 5-chloro-N-{(1RS,2SR)-2-(3-chlorophenyl)-1-[4-(1,1-difluoro-2,2-dimethylpropyl)benzyl]-2-hydroxyethyl}-1-naphthamide] came in with a melting point of 99 to 101 °C.
For the compound `O=C(NC(Cc1ccc(C(F)(F)F)cc1)C(O)c1ccc(F)cc1)c1ccc2ccccc2c1` (racemic) [Example 14, N-[2-(4-fluorophenyl)-2-hydroxy-1-[[4-(trifluoromethyl)phenyl]methyl]ethyl]-2-naphthalenecarboxamide], the melting point was in the range of 148 to 150 °C.
Compound `O=C(N[C@H](Cc1cccc(OCC(F)(F)C(F)F)c1)[C@@H](O)c1ccc(F)cc1)c1ccc(F)c2ccccc12` (racemic) [Example 172, N-((1RS,2SR)-2-(4-fluorophenyl)-2-hydroxy-1-((3-(2,2,3,3-tetrafluoropropyloxy)phenyl)methyl)ethyl)-4-fluoro-1-naphthalenecarboxamide] came in with a melting point of 160 to 161 °C.
`O=C(O)CCC(=O)O[C@H](c1ccc(F)cc1)[C@H](Cc1cccc(OC(F)(F)C(F)F)c1)NC(=O)c1ccc(F)c2ccccc12` (racemic) (as salt: succinate) [Example 388, (1RS,2SR)-2-[(4-fluoro-1-naphthoyl)amino]-1-(4-fluorophenyl)-3-[3-(1,1,2,2-tetrafluoroethoxy)phenyl]propyl hydrogen succinate]: the melting point is 181 to 182 °C.
With `O=C(N[C@H](Cc1cccc(OC(F)(F)C(F)F)c1)[C@@H](O)c1ccc(Br)cc1)c1cccc2c1C=CCCC2` (racemic) [Example 290, N-[(1RS,2SR)-2-(4-bromophenyl)-2-hydroxy-1-[3-(1,1,2,2-tetrafluoroethoxy)benzyl]ethyl]-6,7-dihydro-5H-benzo[a]cycloheptene-1-carboxamide] the figure was 184 to 185 °C.
Compound `O=C(N[C@H](Cc1cccc(C(=O)C(F)(F)C(F)F)c1)[C@@H](O)c1ccc(F)cc1)c1cccc2c(Cl)cccc12` (racemic) [Example 350, 5-chloro-N-[(1RS,2SR)-2-(4-fluorophenyl)-2-hydroxy-1-[3-(2,2,3,3-tetrafluoropropionyl)benzyl]ethyl]naphthalene-1-carboxamide] gave a melting point of 154 to 155 °C.
`O=C(N[C@H](Cc1ccc(C(F)(F)F)cc1)[C@H](O)c1ccc(F)cc1)c1cccc2ccccc12` (racemic) [Example 26, N-((1RS,2RS)-2-(4-fluorophenyl)-2-hydroxy-1-((4-(trifluoromethyl)phenyl)methyl)ethyl)-1-naphthalenecarboxamide] had a melting point of 134 to 135 °C.
`CC(C)(C)Oc1ccc(C[C@@H](NC(=O)c2ccc(F)c3ccccc23)[C@@H](O)c2cccc(Cl)c2)cc1` (racemic) [Example 277, N-[(1RS,2SR)-1-(4-tert-butoxybenzyl)-2-(3-chlorophenyl)-2-hydroxyethyl]-4-fluoro-1-naphthamide]: the melting point was in the range of 161 to 162 °C.
As for `CC(C)(C)c1ccc(C[C@@H](NC(=O)c2ccc(F)c3ccccc23)[C@@H](O)c2ccc(F)cc2)cc1` (racemic) [Example 357, N-[(1RS,2SR)-1-(4-tert-butylbenzyl)-2-(4-fluorophenyl)-2-hydroxyethyl]-4-fluoro-1-naphthamide], the melting point lay within 149 to 150 °C.
With `O=C(N[C@H](Cc1ccccc1C(F)(F)F)[C@@H](O)c1ccc(F)cc1)c1cccc2ccccc12` (racemic) [Example 140, N-((1RS,2SR)-2-(4-fluorophenyl)-2-hydroxy-1-((2-(trifluoromethyl)phenyl)methyl)ethyl)-1-naphthalenecarboxamide] the figure was 193 to 194 °C; with `O=C(N[C@H](Cc1cccc(OC(F)(F)C(F)F)c1)[C@@H](O)c1ccc(Oc2ccccc2)cn1)c1ccc(F)c2ccccc12` (racemic) [Example 256, 4-fluoro-N-{(1RS,2RS)-2-hydroxy-2-(5-phenoxypyridin-2-yl)-1-[3-(1,1,2,2-tetrafluoroethoxy)benzyl]ethyl}-1-naphthamide], 146 to 147 °C.
The compound `O=C(N[C@H](Cc1ccc(C(F)(F)F)cc1)[C@@H](O)c1ccc(F)c(F)c1)c1ccc(F)c2ccccc12` (racemic) [Example 183, N-((1RS,2SR)-2-(3,4-difluorophenyl)-2-hydroxy-1-((4-(trifluoromethyl)phenyl)methyl)ethyl)-4-fluoro-1-naphthalenecarboxamide] yielded a melting point of 197 to 198 °C.
The compound `O=Cc1cccc(-c2ccc([C@H](O)[C@@H](Cc3cccc(OC(F)(F)C(F)F)c3)NC(=O)c3cccc4c3C=CCCC4)cc2)c1` (racemic) [Example 300, N-[(1RS,2SR)-2-(3′-formyl[1,1′-biphenyl]-4-yl)-2-hydroxy-1-[3-(1,1,2,2-tetrafluoroethoxy)benzyl]ethyl]-6,7-dihydro-5H-benzo[a]cycloheptene-1-carboxamide] registered a melting point of 103 to 105 °C.
For the compound `O=C(N[C@H](Cc1ccc(C(F)(F)F)cc1)[C@@H](O)c1ccc(F)cc1)C(F)(F)F` (racemic) [Example 70, N-[(1RS,2SR)-2-(4-fluorophenyl)-2-hydroxy-1-[4-(trifluoromethyl)benzyl]ethyl]-2,2,2-trifluoroacetamide], the melting point was 162 to 163 °C.
In turn, `O=C(N[C@H](Cc1ccc(C(F)(F)F)cc1)[C@@H](O)c1cccc2ccccc12)c1ccc(F)cc1` (racemic) [Example 188, 4-fluoro-N-((1RS,2SR)-2-hydroxy-2-(1-naphthalenyl)-1-((4-(trifluoromethyl)phenyl)methyl)ethyl)benzamide] displayed a melting point of 194 to 195 °C.
Take `O=C(O)CCC(=O)O[C@H](c1ccc(F)cc1)[C@H](Cc1cccc(OC(F)(F)C(F)F)c1)NC(=O)c1cccc2c1C=CCCC2` (racemic) (as salt: succinate) [Example 384, (1RS,2SR)-2-[(6,7-dihydro-5H-benzo[a]cyclohepten-1-ylcarbonyl)amino]-1-(4-fluorophenyl)-3-[3-(1,1,2,2-tetrafluoroethoxy)phenyl]propyl hydrogen succinate]: the melting point was in the range of 154 to 155 °C.
With `O=C(CCCc1ccccc1)N[C@H](Cc1ccc(C(F)(F)F)cc1)[C@@H](O)c1ccc(F)cc1` (racemic) [Example 47, N-((1RS,2SR)-2-(4-fluorophenyl)-2-hydroxy-1-((4-(trifluoromethyl)phenyl)methyl)ethyl)-4-phenylbutyramide] the figure was 150 to 151 °C; with `O=C(CCc1ccccc1)N[C@H](Cc1ccc(C(F)(F)F)cc1)[C@@H](O)c1ccc(Cl)nc1` (racemic) [Example 203, N-((1RS,2SR)-2-(6-chloro-3-pyridyl)-2-hydroxy-1-((4-(trifluoromethyl)phenyl)methyl)ethyl)-3-phenylpropanamide], 149 to 150 °C; with `O=C(N[C@H](Cc1cccc(OC(F)(F)C(F)F)c1)[C@@H](O)c1cccc(Cl)c1)c1ccc(F)c2ccccc12` (racemic) [Example 264, 4-fluoro-N-{(1RS,2SR)-2-(3-chlorophenyl)-2-hydroxy-1-[3-(1,1,2,2-tetrafluoroethoxy)benzyl]ethyl}-1-naphthamide], 177 to 178 °C.
In the case of `O=C(N[C@H](Cc1ccc(C(F)(F)F)cc1)[C@@H](O)c1cccc2ccccc12)c1ccc(F)c2ccccc12` (racemic) [Example 186, 4-fluoro-N-((1RS,2SR)-2-hydroxy-2-(1-naphthalenyl)-1-((4-(trifluoromethyl)phenyl)methyl)ethyl)-1-naphthalenecarboxamide], the melting point was 195 to 196 °C.
`CC(C)(C)OC(=O)N[C@H](Cc1cccc(S(=O)(=O)C(F)(F)F)c1)[C@@H](O)c1ccc(F)cc1` (racemic) [Example 279, tert-butyl (1RS,2SR)-2-(4-fluorophenyl)-2-hydroxy-1-{3-[(trifluoromethyl)sulfonyl]benzyl}ethylcarbamate]: the melting point was 152 to 153 °C.
`COC(=O)c1ccc([C@@H](O)[C@H](Cc2cccc(OC(F)(F)C(F)F)c2)NC(=O)OC(C)(C)C)cc1` (racemic) [Example 308, methyl 4-[(1RS,2SR)-2-[(tert-butoxycarbonyl)amino]-1-hydroxy-3-[3-(1,1,2,2-tetrafluoroethoxy)phenyl]propyl]benzoate] yielded a melting point of 148 to 150 °C.
In turn, `O=C(N[C@H](Cc1cccc(OC(F)(F)C(F)F)c1)[C@@H](O)c1csc(-c2ccccc2)n1)c1ccc(F)c2ccccc12` (racemic) [Example 362, 4-fluoro-N-{(1RS,2RS)-2-hydroxy-2-(2-phenyl-1,3-thiazol-4-yl)-1-[3-(1,1,2,2-tetrafluoroethoxy)benzyl]ethyl}-1-naphthamide] registered a melting point of 148 to 150 °C.
In the case of `O=C(N[C@H](Cc1ccc(C(F)(F)F)cc1)[C@@H](O)c1ccc(F)cc1)c1cc(Cl)cc2ccccc12` (racemic) [Example 76, 3-chloro-N-[(1RS,2SR)-2-(4-fluorophenyl)-2-hydroxy-1-[4-(trifluoromethyl)benzyl]ethyl]naphthalene-1-carboxamide], the melting point is 220 to 221 °C.

(Values after US6982348B2, “Aminoethanol derivatives” (Takeda Pharmaceutical Company Limited, priority 2001, dated 2006).)
